Laboratory results published in ChEMBL document CHEMBL4819127, “Syntheses and antimicrobial activities of ogipeptin derivatives” (Bioorg Med Chem Lett, 2021).
≈ marks a conversion by molar mass, not a printed value.

Assays:
Escherichia coli = experiment: Antibacterial activity against Escherichia coli ATCC 47076 assessed as bacterial growth inhibition; assay type: functional
Klebsiella pneumoniae [1] = experiment: Antibacterial activity against Klebsiella pneumoniae ATCC 10031 assessed as bacterial growth inhibition; assay type: functional
Acinetobacter baumannii [2] = experiment: Antibacterial activity against Acinetobacter baumannii ATCC 19606 assessed as bacterial growth inhibition; assay type: functional; conditions: ATCC 19606 = CIP 70.34 = JCM 6841
Pseudomonas aeruginosa [3] = experiment: Antibacterial activity against Pseudomonas aeruginosa ATCC 27853 assessed as bacterial growth inhibition; assay type: functional
Klebsiella pneumoniae [4] = experiment: Antibacterial activity against Klebsiella pneumoniae ATCC 700721 assessed as bacterial growth inhibition; assay type: functional
Klebsiella pneumoniae [5] = experiment: Antibacterial activity against Klebsiella pneumoniae JCM 1662 assessed as bacterial growth inhibition; assay type: functional
Pseudomonas aeruginosa [6] = experiment: Antibacterial activity against Pseudomonas aeruginosa ATCC 15692 assessed as bacterial growth inhibition; assay type: functional
Klebsiella pneumoniae [7] = experiment: Antibacterial activity against Klebsiella pneumoniae IHMA 1387833 assessed as bacterial growth inhibition; assay type: functional
Acinetobacter baumannii [8] = experiment: Antibacterial activity against Acinetobacter baumannii IHMA 1312713 assessed as bacterial growth inhibition; assay type: functional
Pseudomonas aeruginosa [9] = experiment: Antibacterial activity against Pseudomonas aeruginosa IHMA 1375891 assessed as bacterial growth inhibition; assay type: functional
[10] = Cytotoxicity against HEK293 cells; assay type: cell-based; conditions: human, HEK293 cells
HepG2 = experiment: Cytotoxicity against human HepG2 cells; assay type: functional

MIC (Escherichia coli)	MIC (Klebsiella pneumoniae [1])	MIC (Acinetobacter baumannii [2])	MIC (Pseudomonas aeruginosa [3])	MIC (Klebsiella pneumoniae [4])	MIC (Klebsiella pneumoniae [5])	MIC (Pseudomonas aeruginosa [6])	MIC (Klebsiella pneumoniae [7])	MIC (Acinetobacter baumannii [8])	MIC (Pseudomonas aeruginosa [9])	Compound	CC50 [10]	CC50 (HepG2)
8 µg/mL (≈ 7.45 µM)	32 µg/mL (≈ 29.8 µM)	256 µg/mL (≈ 238 µM)	8 µg/mL (≈ 7.45 µM)	> 256 µg/mL	> 256 µg/mL	> 256 µg/mL	> 256 µg/mL	> 256 µg/mL	> 256 µg/mL	C/C=C1\NC(=O)C(NC(=O)[C@H]2CC[C@H](CNC(=O)OCc3ccccc3)CC2)C(O)CNC(=O)C(C(O)CN)NC(=O)C(C(O)CN)NC(=O)[C@H](CCCNC(=N)N)NC(=O)[C@H](CC(C)C)NC(=O)[C@H](CCN)NC1=O (stereo partly specified)	> 64 µM	> 64 µM
1 µg/mL	1 µg/mL	2 µg/mL	2 µg/mL	1 µg/mL	4 µg/mL	2 µg/mL	32 µg/mL	8 µg/mL	64 µg/mL	COLISTIN	–	> 64 µM
4 µg/mL (≈ 3.7 µM)	4 µg/mL (≈ 3.7 µM)	8 µg/mL (≈ 7.4 µM)	8 µg/mL (≈ 7.4 µM)	> 256 µg/mL	> 256 µg/mL	128 µg/mL (≈ 118 µM)	> 256 µg/mL	64 µg/mL (≈ 59.2 µM)	128 µg/mL (≈ 118 µM)	C/C=C1\NC(=O)C(NC(=O)c2cn(-c3ccccc3)nc2-c2ccc(Cl)cc2)C(O)CNC(=O)C(C(O)CN)NC(=O)C(C(O)CN)NC(=O)[C@H](CCCNC(=N)N)NC(=O)[C@H](CC(C)C)NC(=O)[C@H](CCN)NC1=O (stereo partly specified)	> 64 µM	> 64 µM
16 µg/mL (≈ 14.9 µM)	128 µg/mL (≈ 119 µM)	> 256 µg/mL	256 µg/mL (≈ 238 µM)	> 256 µg/mL	> 256 µg/mL	> 256 µg/mL	> 256 µg/mL	> 256 µg/mL	> 256 µg/mL	C/C=C1\NC(=O)C(NC(=O)c2ccc(NS(=O)(=O)Cc3ccccc3)cc2)C(O)CNC(=O)C(C(O)CN)NC(=O)C(C(O)CN)NC(=O)[C@H](CCCNC(=N)N)NC(=O)[C@H](CC(C)C)NC(=O)[C@H](CCN)NC1=O (stereo partly specified)	> 64 µM	> 64 µM
9 µg/mL (≈ 8.37 µM)	8 µg/mL (≈ 7.44 µM)	4 µg/mL (≈ 3.72 µM)	16 µg/mL (≈ 14.9 µM)	8 µg/mL (≈ 7.44 µM)	16 µg/mL (≈ 14.9 µM)	16 µg/mL (≈ 14.9 µM)	> 256 µg/mL	128 µg/mL (≈ 119 µM)	256 µg/mL (≈ 238 µM)	C/C=C1\NC(=O)C(NC(=O)CCCCCCCCC(=O)OCc2ccccc2)C(O)CNC(=O)C(C(O)CN)NC(=O)C(C(O)CN)NC(=O)[C@H](CCCNC(=N)N)NC(=O)[C@H](CC(C)C)NC(=O)[C@H](CCN)NC1=O (stereo partly specified)	> 64 µM	> 64 µM
2 µg/mL (≈ 1.75 µM)	4 µg/mL (≈ 3.51 µM)	32 µg/mL (≈ 28.1 µM)	8 µg/mL (≈ 7.01 µM)	> 256 µg/mL	> 256 µg/mL	32 µg/mL (≈ 28.1 µM)	> 256 µg/mL	> 256 µg/mL	64 µg/mL (≈ 56.1 µM)	C/C=C1\NC(=O)C(NC(=O)Cc2c(C)n(C(=O)c3ccc(Cl)cc3)c3ccc(OC)cc23)C(O)CNC(=O)C(C(O)CN)NC(=O)C(C(O)CN)NC(=O)[C@H](CCCNC(=N)N)NC(=O)[C@H](CC(C)C)NC(=O)[C@H](CCN)NC1=O (stereo partly specified)	> 64 µM	> 64 µM
2 µg/mL (≈ 1.94 µM)	8 µg/mL (≈ 7.77 µM)	> 256 µg/mL	8 µg/mL (≈ 7.77 µM)	16 µg/mL (≈ 15.5 µM)	> 256 µg/mL	> 256 µg/mL	> 256 µg/mL	> 256 µg/mL	> 256 µg/mL	C/C=C1\NC(=O)C(NC(=O)CCc2nnc(-c3ccc(OC)cc3)[nH]2)C(O)CNC(=O)C(C(O)CN)NC(=O)C(C(O)CN)NC(=O)[C@H](CCCNC(=N)N)NC(=O)[C@H](CC(C)C)NC(=O)[C@H](CCN)NC1=O (stereo partly specified)	> 64 µM	> 64 µM
2 µg/mL (≈ 1.94 µM)	2 µg/mL (≈ 1.94 µM)	8 µg/mL (≈ 7.76 µM)	8 µg/mL (≈ 7.76 µM)	2 µg/mL (≈ 1.94 µM)	> 256 µg/mL	> 256 µg/mL	> 256 µg/mL	> 256 µg/mL	> 256 µg/mL	C/C=C1\NC(=O)C(NC(=O)CCc2nc(-c3ccc(OC)cc3)no2)C(O)CNC(=O)C(C(O)CN)NC(=O)C(C(O)CN)NC(=O)[C@H](CCCNC(=N)N)NC(=O)[C@H](CC(C)C)NC(=O)[C@H](CCN)NC1=O (stereo partly specified)	> 64 µM	> 64 µM
2 µg/mL (≈ 2 µM)	8 µg/mL (≈ 7.98 µM)	256 µg/mL (≈ 255 µM)	> 256 µg/mL	32 µg/mL (≈ 31.9 µM)	> 256 µg/mL	> 256 µg/mL	> 256 µg/mL	> 256 µg/mL	> 256 µg/mL	C/C=C1\NC(=O)C(NC(=O)CCc2nc(-c3ccncc3)no2)C(O)CNC(=O)C(C(O)CN)NC(=O)C(C(O)CN)NC(=O)[C@H](CCCNC(=N)N)NC(=O)[C@H](CC(C)C)NC(=O)[C@H](CCN)NC1=O (stereo partly specified)	> 64 µM	> 64 µM
4 µg/mL (≈ 3.59 µM)	128 µg/mL (≈ 115 µM)	> 256 µg/mL	128 µg/mL (≈ 115 µM)	> 256 µg/mL	> 256 µg/mL	> 256 µg/mL	> 256 µg/mL	> 256 µg/mL	> 256 µg/mL	C/C=C1\NC(=O)C(NC(=O)Cc2ccc(NC(=O)Nc3c(C)cccc3C)c(Cl)c2)C(O)CNC(=O)C(C(O)CN)NC(=O)C(C(O)CN)NC(=O)[C@H](CCCNC(=N)N)NC(=O)[C@H](CC(C)C)NC(=O)[C@H](CCN)NC1=O (stereo partly specified)	> 64 µM	> 64 µM
128 µg/mL (≈ 112 µM)	64 µg/mL (≈ 55.9 µM)	> 128 µg/mL	32 µg/mL (≈ 28 µM)	> 256 µg/mL	> 128 µg/mL	> 128 µg/mL	> 256 µg/mL	> 128 µg/mL	> 128 µg/mL	C/C=C1\NC(=O)C(NC(=O)c2cn3c4c(c(N5CCN(C)CC5)c(F)cc4c2=O)OC[C@@H]3C)C(O)CNC(=O)C(C(O)CN)NC(=O)C(C(O)CN)NC(=O)[C@H](CCCNC(=N)N)NC(=O)[C@H](CC(C)C)NC(=O)[C@H](CCN)NC1=O (stereo partly specified)	> 64 µM	> 64 µM
8 µg/mL (≈ 7.05 µM)	8 µg/mL (≈ 7.05 µM)	16 µg/mL (≈ 14.1 µM)	16 µg/mL (≈ 14.1 µM)	128 µg/mL (≈ 113 µM)	256 µg/mL (≈ 226 µM)	64 µg/mL (≈ 56.4 µM)	256 µg/mL (≈ 226 µM)	32 µg/mL (≈ 28.2 µM)	128 µg/mL (≈ 113 µM)	C/C=C1\NC(=O)C(NC(=O)c2ccc(-c3cc(-c4ccc(OCCCCC)cc4)on3)cc2)C(O)CNC(=O)C(C(O)CN)NC(=O)C(C(O)CN)NC(=O)[C@H](CCCNC(=N)N)NC(=O)[C@H](CC(C)C)NC(=O)[C@H](CCN)NC1=O (stereo partly specified)	–	35 µM
16 µg/mL (≈ 15.1 µM)	256 µg/mL (≈ 242 µM)	> 256 µg/mL	128 µg/mL (≈ 121 µM)	> 256 µg/mL	> 256 µg/mL	> 256 µg/mL	> 256 µg/mL	> 256 µg/mL	> 256 µg/mL	C/C=C1\NC(=O)C(NC(=O)c2ccc(-c3nnn(CC(=O)N(C)C)n3)cc2)C(O)CNC(=O)C(C(O)CN)NC(=O)C(C(O)CN)NC(=O)[C@H](CCCNC(=N)N)NC(=O)[C@H](CC(C)C)NC(=O)[C@H](CCN)NC1=O (stereo partly specified)	> 64 µM	> 64 µM
8 µg/mL (≈ 7.37 µM)	> 256 µg/mL	> 256 µg/mL	32 µg/mL (≈ 29.5 µM)	> 256 µg/mL	> 256 µg/mL	> 256 µg/mL	> 256 µg/mL	> 256 µg/mL	> 256 µg/mL	C/C=C1\NC(=O)C(NC(=O)C2CCCN(C(=O)c3ccc(Cl)c(Cl)c3)C2)C(O)CNC(=O)C(C(O)CN)NC(=O)C(C(O)CN)NC(=O)[C@H](CCCNC(=N)N)NC(=O)[C@H](CC(C)C)NC(=O)[C@H](CCN)NC1=O (stereo partly specified)	> 64 µM	> 64 µM
